Results from patent US20240350440A1, “EXTRACTION OF ABSCISIC ACID FROM STRAWBERRIES” (KING FAISAL UNIVERSITY, priority 2023, published 2024).
Marks after values point to notes of the source that are not given here.

Key:
Format in all cases: in vivo
[1] = system: albino rat after inducing myocardial infarction disease; assay: Biological cardiac markers in adrenaline-induced myocardial infarction; details: MI induced by high dose of adrenaline
Method: (§1) The extracted and purified ABA was tested on an albino rat after inducing myocardial infarction disease by using a high dose of adrenaline at Alexandria faculty of medicine and all tests of examination were performed (chemical, electrocardiograph Histological).

[2] = system: albino rat after inducing myocardial infarction disease; assay: Electrocardiogram assessment in adrenaline-induced myocardial infarction; details: MI induced by high dose of adrenaline
Method: as §1

[3] = system: albino rat after inducing myocardial infarction disease; assay: Histopathological assessment of H&E-stained heart tissue; design: key: grade 1 (normal histological the appearance of the myocardium); grade 2 (focal necrosis of myocardium); grade 3 (focal necrosis of myocardial fiber with neutrophil infiltration and interstitial edema); grade 4 (extensive necrosis of myocardial fiber with hemorrhage, interstitial edema, marked neutrophil infiltration and severe myofibrillary degeneration); details: MI rat
Method: as §1
With reference to the Figures, the histopathological assessment of H&E-stained (hematoxylin and eosin stained) heart tissue was scored according to severity of myocardial changes: grade 1 (normal histological the appearance of the myocardium), grade 2 (focal necrosis of myocardium), grade 3 (focal necrosis of myocardial fiber with neutrophil infiltration and interstitial edema), and grade 4 (extensive necrosis of myocardial fiber with hemorrhage, interstitial edema, marked neutrophil infiltration and severe myofibrillary degeneration).

[4] = system: albino rat after inducing myocardial infarction disease; assay: Oxidative stress markers and antioxidant enzymes in adrenaline-induced myocardial infarction; details: MI induced by high dose of adrenaline
Method: as §1

Compound	CK-MB [1]	LDH [1]	Troponin [1]	COP (mean ml/min) [2]	HR (mean b/min) [2]	RR (interval/sec) [2]	ST height [2]	carotid flow mean [2]	histopathological score, severity of myocardial changes [3]	Catalase [4]	GSH [4]	MDA [4]	NO [4]
CC1=CC(=O)CC(C)(C)C1(O)/C=C/C(C)=C\C(=O)O (centres unmarked) [Extracted ABA, abscisic acid]	1.14 ± 0.02^bc U/L	482.67 ± 4.63^bc U/L	1.71 ± 0.02^b ng/ml	18.57 ± 1.04^b ml/min	247.4 ± 9.69^cd b/min	0.73 ± 0.034^b sec	42.98 ± 4.05^b mm	18.06 ± 1.15^b ml/min	grade 3	97 ± 1.73^bc U/g protein	21.66 ± 0.39^a μmol/g protein	5.68 ± 0.27^bcd μmol/g protein	47.78 ± 4.49^bc μM/g protein
CC1=CC(=O)CC(C)(C)[C@@]1(O)/C=C/C(C)=C\C(=O)O [Standard ABA, abscisic acid]	1.22 ± 0.03^b U/L	587.33 ± 30.12^b U/L	1.72 ± 0.05^b ng/ml	17.52 ± 0.1^b ml/min	255.77 ± 1.23^bc b/min	0.7 ± 0.003^c sec	39.33 ± 2.15^b mm	17.4 ± 0.16^b ml/min	grade 3	112 ± 23.09^abc U/g protein	20.01 ± 2.27^a μmol/g protein	6.13 ± 1.34^bc μmol/g protein	48.61 ± 5.61^bc μM/g protein
